# Laboratory results: patent US20120263848A1, “Organic Compounds” (priority 2009, published 2012)
# Entries after “also recorded” stand apart in the source; their conditions may differ.
# Tests used:
# Format in all cases: in vivo
# [1] = tested on: sweet sensitive panelists; experiment: Isointensity measurement in water against sucrose solutions (R-index ranking)
# Description: A 1% solution of N-cycloheptyl-2-methylindoline-1-carboxamide was prepared in ethanol. This 1% solution was then further diluted, using water, to create a 5 ppm sample solution of N-cycloheptyl-2-methylindoline-1-carboxamide. To determine the isointensity of this solution a panel of trained experts was then asked to evaluate the taste (in particularly the sweet taste) of this sample solution in comparison to 0.5%, 1% and 1.5% sample sucrose solutions. Panel testing was carried out in the following way: Twenty milliliters of each of the samples was presented blind and in counter balanced order following a William's Latin square design, to 20 sweet sensitive panelists. In two replications (over 1 session), panelists were asked to taste and rank the solutions from least sweet to most sweet. […] A 1% solution of (R)-N-cyclooctyl-2-methylindoline-1-carboxamide was prepared in ethanol. This 1% solution was then further diluted, using water, to create a 2 ppm sample solution of (R)-N-cyclooctyl-2-methylindoline-1-carboxamide. To determine the isointensity of this solution a panel of trained experts was then asked to evaluate the taste (in particularly the sweet taste) of this sample solution in comparison to 0.5%, 1% and 1.5% sample sucrose solutions. Panel testing was carried out in the following way: Twenty milliliters of each of the samples was presented blind and in counter balanced order following a William's Latin square design, to 20 sweet sensitive panelists. In two replications (over 1 session), panelists were asked to taste and rank the solutions from least sweet to most sweet.
# [2] = tested on: sweet sensitive panelists; experiment: Sweet enhancement in a cola beverage application (7% sucrose cola, R-index ranking)
# Description: A 1% ethanol solution of N-cycloheptyl-2-methylindoline-1-carboxamide was added into a 7% sucrose containing cola solution. […] To determine its isointensity a panel of trained experts was then asked to evaluate the taste (in particularly the sweet taste) of this sample solution in comparison to sample cola solutions containing 7%, 8%, 9% and 10% sucrose but no N-cycloheptyl-2-methylindoline-1-carboxamide. Panel testing was carried out in the following way: Twenty milliliters of each of the sample solutions was presented blind and in random order to 20 sweet sensitive panelists. In two replications (over 1 session), panelists were asked to rank the solutions from least sweet to most sweet. The data was then subjected to an R-index analysis as described in example 15.
# panel of trained experts = experiment: Taste evaluation of diluted sample solutions by a panel of trained experts; settings: for taste of sample solutions (inherent sweetness): 1% ethanol solutions diluted with water to differing ppm concentrations; for effectiveness at creating modifying, or enhancing the sweet flavour of compositions and consumable products: general statement of the applicant
# Description: 1% solutions of compounds of formula (I) were prepared in ethanol. These 1% solutions were then further diluted, using water, to create sample solutions of differing ppm concentrations. A panel of trained experts was then asked to evaluate the taste of each sample solution and to comment on any inherent sweetness, other perceived taste, or flavor attributes. After tasting each sample the experts rinsed their mouths with water and a break was observed until the stimulus disappeared. […]
# [3] = tested on: sweet sensitive panelists; experiment: Sweet enhancement in 7% sucrose (aqueous solution, R-index ranking)
# Description: A 1% ethanol solution of (R)-N-cyclooctyl-2-methylindoline-1-carboxamide was added into an aqueous 7% sucrose solution. […] To determine its isointensity a panel of trained experts was then asked to evaluate the taste (in particularly the sweet taste) of this sample solution in comparison to aqueous sample solutions containing 7%, 8%, 9% and 10% sucrose, but without added (R)-N-cyclooctyl-2-methylindoline-1-carboxamide. Panel testing was carried out in the following way: Twenty milliliters of each of the sample solutions was presented blind and in random order to 20 sweet sensitive panelists. In two replications (over 1 session), panelists were asked to rank the solutions from least sweet to most sweet. The data was then subjected to an R-index analysis as described in example 5.
# [4] = 5 ppm in water vs. 0.5% sucrose solution
# [5] = 5 ppm in water vs. 1.0% sucrose solution
# [6] = 5 ppm in water vs. 1.5% sucrose solution
# [7] = 7% sugar cola + 5 ppm vs. 7% sugar
# [8] = 7% sugar cola + 5 ppm vs. 8% sugar
# [9] = 7% sugar cola + 5 ppm vs. 9% sugar
# [10] = 7% sugar cola + 5 ppm vs. 10% sugar
# [11] = 2 ppm in water vs. 0.5% sucrose solution
# [12] = 2 ppm in water vs. 1.0% sucrose solution
# [13] = 2 ppm in water vs. 1.5% sucrose solution
structure (smiles),measurement,setting,value
"CC1Cc2ccccc2N1C(=O)NC1CCCCCC1 (centres unmarked) [Example 2, N-cycloheptyl-2-methylindoline-1-carboxamide]",Experimental Compound Sweetness,[1]; [4],Iso-sweet; also recorded: iso sweet
same,R-index,[1]; [4],39.38
same,Significantly different (p < 0.05),[1]; [4],No
same,Experimental Compound Sweetness,[1]; [5],significantly less sweet
same,R-index,[1]; [5],78.63
same,Significantly different (p < 0.05),[1]; [5],Yes
same,Experimental Compound Sweetness,[1]; [6],significantly less sweet
same,R-index,[1]; [6],92.00
same,Significantly different (p < 0.05),[1]; [6],Yes
same,sweetness enhancer behaviour,"[2]; 5 ppm in 7% sucrose cola, iso sweet with 8% instead of expected 7.5% sucrose",behaving as a sweetness enhancer
same,Experimental Compound Sweetness,[2]; [7],significantly more sweet
same,R-index,[2]; [7],37.72
same,Significantly different (p < 0.05),[2]; [7],Yes
same,Experimental Compound Sweetness,[2]; [8],Iso sweet
same,R-index,[2]; [8],40.03
same,Significantly different (p < 0.05),[2]; [8],No
same,Experimental Compound Sweetness,[2]; [9],significantly less sweet
same,R-index,[2]; [9],68.97
same,Significantly different (p < 0.05),[2]; [9],Yes
same,Experimental Compound Sweetness,[2]; [10],significantly less sweet
same,R-index,[2]; [10],90.78
same,Significantly different (p < 0.05),[2]; [10],Yes
"C[C@@H]1Cc2ccccc2N1C(=O)NC1CCCCCC1 [Example 18, (R)-N-cycloheptyl-2-methylindoline-1-carboxamide]",taste of sample solutions (inherent sweetness),panel of trained experts,sweet
same,"effectiveness at creating modifying, or enhancing the sweet flavour of compositions and consumable products",panel of trained experts,particularly effective
"C[C@@H]1Cc2ccccc2N1C(=O)NC1CCCCCCC1 [Example 20, (R)-N-cyclooctyl-2-methylindoline-1-carboxamide]",R-index,[1]; [11],27.00
same,Significantly different (p < 0.05),[1]; [11],Yes
same,Experimental Compound Sweetness,[1]; [12],significantly less sweet
same,R-index,[1]; [12],72.31
same,Significantly different (p < 0.05),[1]; [12],Yes
same,Experimental Compound Sweetness,[1]; [13],significantly less sweet
same,R-index,[1]; [13],99.13
same,Significantly different (p < 0.05),[1]; [13],Yes
same,taste of sample solutions (inherent sweetness),panel of trained experts,sweet
same,"effectiveness at creating modifying, or enhancing the sweet flavour of compositions and consumable products",panel of trained experts,particularly effective
same,sweetness enhancer behaviour,"[3]; 2 ppm in 7% sucrose, iso sweet with 8% sucrose, expected less sweet than 8%",behaving as a sweetness enhancer
same,Experimental Compound Sweetness,[3]; 7% sugar + 2 ppm vs. 7% sugar,significantly more sweet
same,R-index,[3]; 7% sugar + 2 ppm vs. 7% sugar,35.53
same,Significantly different (p < 0.05),[3]; 7% sugar + 2 ppm vs. 7% sugar,Yes
same,Experimental Compound Sweetness,[3]; 7% sugar + 2 ppm vs. 8% sugar,Iso sweet
same,R-index,[3]; 7% sugar + 2 ppm vs. 8% sugar,61.44
same,Significantly different (p < 0.05),[3]; 7% sugar + 2 ppm vs. 8% sugar,No
same,Experimental Compound Sweetness,[3]; 7% sugar + 2 ppm vs. 9% sugar,significantly less sweet
same,R-index,[3]; 7% sugar + 2 ppm vs. 9% sugar,77.09
same,Significantly different (p < 0.05),[3]; 7% sugar + 2 ppm vs. 9% sugar,Yes
same,Experimental Compound Sweetness,[3]; 7% sugar + 2 ppm vs. 10% sugar,significantly less sweet
same,R-index,[3]; 7% sugar + 2 ppm vs. 10% sugar,88.44
same,Significantly different (p < 0.05),[3]; 7% sugar + 2 ppm vs. 10% sugar,Yes
